In test [1] the test system is Romaine lettuce (Lactuca sativa L.) plants. The test can be described thus: Post-emergency herbicidal activity on Romaine lettuce plants. The class given is in vivo. Conditions: Romaine lettuce at stage 2 to 3 leaves; compound in 0.1% Silwet, up to 0.5%; visual evaluation vs control plants. Put shortly: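 Plants at the 2 to 3 leaf stage were treated with compound in 0.1% aqueous Silwet at 0.0% (Control) to 0.5%, with 20 to 40 plants per test. Vigor, height and leaf color were scored 0 (dead) to 100 (healthy) at 7, 14 and 21 DAA, and aboveground wet weight was measured.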

Test [2] relates to Seeds of Lettuce R. (Super-Jericho). Put plainly: Filter paper bioassay with lettuce seeds (germination and early plant development). The class given is in vivo. Conditions: lettuce seeds on filter paper; 1, 0.1, 0.01, 0.001 mM; radicle and shoots assessed after 6 days. Put shortly:
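Lettuce seeds (10 per plate) were placed on filter paper with 2.0 ml water or test material at 1, 0.1, 0.01 or 0.001 mM. Plates were kept dark for 48 h, then grown 4 days at 22° C under a 6/18 dark/light cycle. At day 6, radicle and shoot development was scored visually; MEC is the lowest concentration causing deviation from control.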

This is an account of results in patent publication US20220232831A1, “NOVEL NON-CODING HETEROCYCLIC AMINO ACIDS (NCHAA) AND THEIR USE AS HERBICIDES” (Fortephest Ltd., priority 2019, published 2022).

On to `NC(Cc1ccncc1)C(=O)O` (stereo not shown) [Code 602], for which the “post-emergency herbicidal activity (Activity Index: plant's development vs Control)” value in test [1] was “Moderate (From 50 to 75)”. Also, the “Minimal Effective Concentration (MEC) as activity score, seeds germination & early plants development” value (“Minimal Effective Concentration (MEC)” below) in test [2] was “Strong (0.1 mM)”.

Regarding `Cl.Cl.NC(Cc1cccnc1)C(=O)O` (stereo not shown) [Code 603], the “post-emergency herbicidal activity (Activity Index: plant's development vs Control)” value in test [1] is “Strong (From 25 to 50)”. For the same compound, the “Minimal Effective Concentration (MEC)” value in test [2] is recorded as “Strong (0.1 mM)”.

Consider `N[C@@H](Cc1cncc(O)c1)C(=O)O` [Code 605], for which the “post-emergency herbicidal activity (Activity Index: plant's development vs Control)” value in test [1] was “Weak (More than 75)”. The “Minimal Effective Concentration (MEC)” value in test [2] was “Weak (More than 1 mM)”.

`Cc1cncc(CC(N)C(=O)O)c1` (stereo not shown) [Code 606]: the “post-emergency herbicidal activity (Activity Index: plant's development vs Control)” value in test [1] was “Weak (More than 75)”. For the same compound, the “Minimal Effective Concentration (MEC)” value in test [2] is listed as “Weak (More than 1 mM)”.

For `Nc1ccnc(CC(N)C(=O)O)c1` (stereo not shown) [Code 607], the “post-emergency herbicidal activity (Activity Index: plant's development vs Control)” value in test [1] is “Weak (More than 75)”. Moreover, the “Minimal Effective Concentration (MEC)” value in test [2] is listed as “Weak (More than 1 mM)”.

On to `Nc1cc(CC(N)C(=O)O)ccn1` (stereo not shown) [Code 608], for which the “post-emergency herbicidal activity (Activity Index: plant's development vs Control)” value in test [1] is on record as “Moderate (From 50 to 75)”. Further, the “Minimal Effective Concentration (MEC)” value in test [2] was “Moderate (1 mM)”.

`Nc1cccc(CC(N)C(=O)O)n1` (stereo not shown) [Code 609]: the “post-emergency herbicidal activity (Activity Index: plant's development vs Control)” value in test [1] is recorded as “Weak (More than 75)”. Further, the “Minimal Effective Concentration (MEC)” value in test [2] is listed as “Weak (More than 1 mM)”.

Turning to `Nc1cncc(CC(N)C(=O)O)c1` (stereo not shown) [Code 610], the “post-emergency herbicidal activity (Activity Index: plant's development vs Control)” value in test [1] is “Weak (More than 75)”. The “Minimal Effective Concentration (MEC)” value in test [2] is listed as “Weak (More than 1 mM)”.

As to `NC(Cc1cncc(S)c1)C(=O)O` (stereo not shown) [Code 612], the “post-emergency herbicidal activity (Activity Index: plant's development vs Control)” value in test [1] is on record as “Weak (More than 75)”. For the same compound, the “Minimal Effective Concentration (MEC)” value in test [2] is “Weak (More than 1 mM)”.

`NC(Cc1ccnc(S)c1)C(=O)O` (stereo not shown) [Code 613]: in test [1], the “post-emergency herbicidal activity (Activity Index: plant's development vs Control)” value is “Weak (More than 75)”. In addition, the “Minimal Effective Concentration (MEC)” value in test [2] was “Weak (More than 1 mM)”.

As to `NC(Cc1cncnc1)C(=O)O` (stereo not shown) [Code 614], the “post-emergency herbicidal activity (Activity Index: plant's development vs Control)” value in test [1] is given as “Weak (More than 75)”. Also, the “Minimal Effective Concentration (MEC)” value in test [2] was “Weak (More than 1 mM)”.

In the case of `Nc1cc(Cl)nc(CC(N)C(=O)O)n1` (stereo not shown) [Code 616], the “post-emergency herbicidal activity (Activity Index: plant's development vs Control)” value in test [1] was “Weak (More than 75)”. Also, the “Minimal Effective Concentration (MEC)” value in test [2] is “Weak (More than 1 mM)”.

`Cl.Cl.NC(Cc1ncccn1)C(=O)O` (stereo not shown) [Code 618]: the “post-emergency herbicidal activity (Activity Index: plant's development vs Control)” value in test [1] is reported as “Weak (More than 75)”. Also, the “Minimal Effective Concentration (MEC)” value in test [2] is on record as “Weak (More than 1 mM)”.

As to `NC(Cc1nccc(O)n1)C(=O)O` (stereo not shown) [Code 619], in test [1], the “post-emergency herbicidal activity (Activity Index: plant's development vs Control)” value is “Weak (More than 75)”. Further, in test [2], the “Minimal Effective Concentration (MEC)” value is “Weak (More than 1 mM)”.

For `NC(Cc1c[nH]c(=O)[nH]c1=O)C(=O)O` (stereo not shown) [Code 620], the “post-emergency herbicidal activity (Activity Index: plant's development vs Control)” value in test [1] is “Weak (More than 75)”. Moreover, the “Minimal Effective Concentration (MEC)” value in test [2] is “Weak (More than 1 mM)”.

Consider `NC(Cc1cnccn1)C(=O)O` (stereo not shown) [Code 621], for which, in test [1], the “post-emergency herbicidal activity (Activity Index: plant's development vs Control)” value is reported as “Weak (More than 75)”. Besides, the “Minimal Effective Concentration (MEC)” value in test [2] is on record as “Weak (More than 1 mM)”.

For the compound `NC(Cc1cncc(Cl)c1)C(=O)O` (stereo not shown) [Code 622], the “post-emergency herbicidal activity (Activity Index: plant's development vs Control)” value in test [1] is recorded as “Moderate (From 50 to 75)”. Moreover, in test [2], the “Minimal Effective Concentration (MEC)” value is “Strong (0.1 mM)”.

For `NC(Cc1cc(Cl)cnc1Cl)C(=O)O` (stereo not shown) [Code 624], the “post-emergency herbicidal activity (Activity Index: plant's development vs Control)” value in test [1] was “Moderate (From 50 to 75)”. Moreover, in test [2], the “Minimal Effective Concentration (MEC)” value was “Moderate (1 mM)”.

Take `NC(Cc1ccncn1)C(=O)O` (stereo not shown) [Code 625]: the “post-emergency herbicidal activity (Activity Index: plant's development vs Control)” value in test [1] is “Weak (More than 75)”. Further, the “Minimal Effective Concentration (MEC)” value in test [2] is “Moderate (1 mM)”.

Consider `NC(Cc1cncc(F)c1)C(=O)O` (stereo not shown) [Code 626], for which, in test [1], the “post-emergency herbicidal activity (Activity Index: plant's development vs Control)” value is “Strong (From 25 to 50)”. Besides, in test [2], the “Minimal Effective Concentration (MEC)” value is recorded as “Strong (0.1 mM)”.

On to `NC(Cc1ccc(Cl)nc1)C(=O)O` (stereo not shown) [Code 627], for which the “post-emergency herbicidal activity (Activity Index: plant's development vs Control)” value in test [1] is “Moderate (From 50 to 75)”. Moreover, the “Minimal Effective Concentration (MEC)” value in test [2] is “Strong (0.1 mM)”.

As for `NC(Cc1cc(Cl)nc(Cl)c1)C(=O)O` (stereo not shown) [Code 628], the “post-emergency herbicidal activity (Activity Index: plant's development vs Control)” value in test [1] is reported as “Very Strong (From 15 to 25)”. In addition, in test [2], the “Minimal Effective Concentration (MEC)” value is reported as “Moderate (1 mM)”.

As for `NC(Cc1c(Cl)cncc1Cl)C(=O)O` (stereo not shown) [Code 629], the “post-emergency herbicidal activity (Activity Index: plant's development vs Control)” value in test [1] was “Moderate (From 50 to 75)”. Moreover, the “Minimal Effective Concentration (MEC)” value in test [2] is on record as “Weak (More than 1 mM)”.

With `NC(Cc1c(F)cncc1F)C(=O)O` (stereo not shown) [Code 630], the “post-emergency herbicidal activity (Activity Index: plant's development vs Control)” value in test [1] is given as “Strong (From 25 to 50)”. The “Minimal Effective Concentration (MEC)” value in test [2] is given as “Moderate (1 mM)”.

Turning to `CN(C)c1cc(CC(N)C(=O)O)ccn1` (stereo not shown) [Code 631], in test [1], the “post-emergency herbicidal activity (Activity Index: plant's development vs Control)” value is “Weak (More than 75)”. Further, the “Minimal Effective Concentration (MEC)” value in test [2] is reported as “Weak (More than 1 mM)”.

In the case of `NC(Cc1cnc(Br)c(Br)c1)C(=O)O` (stereo not shown) [Code 633], the “post-emergency herbicidal activity (Activity Index: plant's development vs Control)” value in test [1] was “Strong (From 25 to 50)”. Moreover, the “Minimal Effective Concentration (MEC)” value in test [2] was “Strong (0.1 mM)”.

Take `NC(Cc1cc(Br)nc(Br)c1)C(=O)O` (stereo not shown) [Code 634]: the “post-emergency herbicidal activity (Activity Index: plant's development vs Control)” value in test [1] was “Very Strong (From 15 to 25)”. In addition, the “Minimal Effective Concentration (MEC)” value in test [2] is “Strong (0.1 mM)”.

Turning to `NC(Cc1ccnc(Br)c1Br)C(=O)O` (stereo not shown) [Code 635], the “post-emergency herbicidal activity (Activity Index: plant's development vs Control)” value in test [1] was “Weak (More than 75)”. For the same compound, the “Minimal Effective Concentration (MEC)” value in test [2] is on record as “Weak (More than 1 mM)”.

As for `NC(Cc1cncc(C(F)(F)F)c1)C(=O)O` (stereo not shown) [Code 637], the “post-emergency herbicidal activity (Activity Index: plant's development vs Control)” value in test [1] is recorded as “Weak (More than 75)”. Also, the “Minimal Effective Concentration (MEC)” value in test [2] was “Strong (0.1 mM)”.

Regarding `NC(Cc1cnc(Cl)c(Cl)c1)C(=O)O` (stereo not shown) [Code 641], in test [1], the “post-emergency herbicidal activity (Activity Index: plant's development vs Control)” value was “Very Strong (From 15 to 25)”. For the same compound, the “Minimal Effective Concentration (MEC)” value in test [2] was “Strong (0.1 mM)”.

As to `NC(Cc1cc[nH]c(=O)c1)C(=O)O` (stereo not shown) [Code 642], the “post-emergency herbicidal activity (Activity Index: plant's development vs Control)” value in test [1] is on record as “Weak (More than 75)”. Besides, in test [2], the “Minimal Effective Concentration (MEC)” value was “Weak (More than 1 mM)”.

Turning to `CN(C)c1ccncc1CC(N)C(=O)O` (stereo not shown) [Code 643], the “post-emergency herbicidal activity (Activity Index: plant's development vs Control)” value in test [1] is “Weak (More than 75)”. In addition, the “Minimal Effective Concentration (MEC)” value in test [2] is given as “Weak (More than 1 mM)”.

`NC(Cc1ccc[nH]c1=O)C(=O)O` (stereo not shown) [Code 644]: the “post-emergency herbicidal activity (Activity Index: plant's development vs Control)” value in test [1] is “Weak (More than 75)”. Besides, the “Minimal Effective Concentration (MEC)” value in test [2] is “Weak (More than 1 mM)”.

With `NC(Cc1cc(=O)[nH]cn1)C(=O)O` (stereo not shown) [Code 645], the “post-emergency herbicidal activity (Activity Index: plant's development vs Control)” value in test [1] is recorded as “Weak (More than 75)”. Also, the “Minimal Effective Concentration (MEC)” value in test [2] was “Weak (More than 1 mM)”.

In the case of `NC(Cc1cnc[nH]c1=O)C(=O)O` (stereo not shown) [Code 646], the “post-emergency herbicidal activity (Activity Index: plant's development vs Control)” value in test [1] is “Weak (More than 75)”. Besides, the “Minimal Effective Concentration (MEC)” value in test [2] was “Weak (More than 1 mM)”.

Regarding `NC(Cc1ccc(=O)[nH]c1)C(=O)O` (stereo not shown) [Code 650], in test [1], the “post-emergency herbicidal activity (Activity Index: plant's development vs Control)” value is recorded as “Weak (More than 75)”. Also, in test [2], the “Minimal Effective Concentration (MEC)” value is given as “Moderate (1 mM)”.

Turning to `NC(Cc1cc(=O)[nH]c(=O)[nH]1)C(=O)O` (stereo not shown) [Code 652], the “post-emergency herbicidal activity (Activity Index: plant's development vs Control)” value in test [1] was “Weak (More than 75)”. The “Minimal Effective Concentration (MEC)” value in test [2] was “Weak (More than 1 mM)”.

Regarding `NC(Cc1cc(=O)[nH]c(S)n1)C(=O)O` (stereo not shown) [Code 653], in test [1], the “post-emergency herbicidal activity (Activity Index: plant's development vs Control)” value is reported as “Weak (More than 75)”. Further, the “Minimal Effective Concentration (MEC)” value in test [2] was “Weak (More than 1 mM)”.

Turning to `CCCOC(=O)C(N)Cc1ccnc(Br)c1` (stereo not shown) [Code 654], the “post-emergency herbicidal activity (Activity Index: plant's development vs Control)” value in test [1] is “Strong (From 25 to 50)”. Besides, the “Minimal Effective Concentration (MEC)” value in test [2] was “Strong (0.1 mM)”.

For `NC(Cc1c(F)cnc(Br)c1F)C(=O)O` (stereo not shown) [Code 655], the “post-emergency herbicidal activity (Activity Index: plant's development vs Control)” value in test [1] is “Maximal (Less than 15)”. In addition, in test [2], the “Minimal Effective Concentration (MEC)” value was “Strong (0.1 mM)”.

`CCCOC(=O)C(N)Cc1c(F)cnc(Br)c1F` (stereo not shown) [Code 656]: in test [1], the “post-emergency herbicidal activity (Activity Index: plant's development vs Control)” value is reported as “Very Strong (From 15 to 25)”. Further, in test [2], the “Minimal Effective Concentration (MEC)” value is listed as “Strong (0.1 mM)”.
